Molecules are shown by their SMILES.

EC50 data for 22 molecules are collected here from US12319676B2, “Substituted amide compounds useful as farnesoid X receptor modulators” (BRISTOL-MYERS SQUIBB COMPANY, priority 2019, dated 2025).

This assay has as its target T1, human FXR (Homo sapiens, UniProt Q96RI1).
T1 construct: expressed in transfected cells; host or cells: HEK293 cells stably carrying a 5xGal4 response element-luciferase reporter, transiently transfected with pcDNA3.1-Gal4-FXR
T1 sequence (Q96RI1 262-486 limits assumed): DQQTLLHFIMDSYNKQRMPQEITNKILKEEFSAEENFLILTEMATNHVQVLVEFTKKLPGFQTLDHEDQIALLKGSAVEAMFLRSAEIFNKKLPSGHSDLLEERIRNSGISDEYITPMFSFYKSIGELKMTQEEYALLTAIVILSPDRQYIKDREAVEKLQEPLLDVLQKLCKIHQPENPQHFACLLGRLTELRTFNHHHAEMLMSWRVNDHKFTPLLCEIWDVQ
The experiment in a line: transient human FXR/Gal4-luciferase reporter assay. In kind it is cell-based. To be noted: Gal4-hFXR fusion construct, luciferase reporter in HEK293 cells; overnight incubation; response as percentage of 8 μM GW-4064 control. An outline of the steps:
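HEK293 cells stably carrying a 5×Gal4-response-element firefly luciferase reporter were transiently transfected with a Gal4 DBD-human FXR LBD fusion, then treated overnight with compounds at 37 °C. Steady-Glo luminescence, minus DMSO background, was expressed as percent of the response to 8 μM GW-4064.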
(Reporter assays use an easily measured gene product as a stand-in for the process of interest.)

With `CC(C)(C)c1nc(C23CCC(CN(C(=O)C45CC(F)(C4)C5)c4cccc(Nc5ccc(OC(F)F)cc5)c4)(CC2)CC3)no1` [Example 84, N-((4-(5-(tert-butyl)-1,2,4-oxadiazol-3-yl)bicyclo[2.2.2]octan-1-yl)methyl)-N-(3-((4-(difluoromethoxy)phenyl)amino)phenyl)-3-fluorobicyclo[1.1.1]pentane-1-carboxamide], the EC50 – broadly, the concentration at which the effect is half-maximal – was found to be 84 nM.

`CCOc1ccc(Nc2cccc(N(CC34CCC(c5noc(C(C)(C)C)n5)(CC3)CC4)C(=O)C34CC(F)(C3)C4)c2)cc1` [Example 85, N-((4-(5-(tert-butyl)-1,2,4-oxidial-3-yl)bicyclo[2.2.2]octan-1-yl)methyl)-N-(3-((4-ethoxyphenyl)amino)phenyl)-3-fluorobicyclo[1.1.1]pentane-1-carboxamide]: a half-maximal effect (EC50) was put at 608 nM.

As to `CCc1ccc(Nc2cccc(N(CC34CCC(c5noc(C(C)(C)C)n5)(CC3)CC4)C(=O)C34CC(F)(C3)C4)c2)cc1` [Example 86, N-((4-(5-(tert-butyl)-1,2,4-oxadiazol-3-yl)bicyclo[2.2.2]octan-1-yl)methyl)-N-(3-((4-ethylphenyl)amino)phenyl)-3-fluorobicyclo[1.1.]pentane-1-carboxamide], the response was half-maximal at 519 nM (EC50).

In the case of `CC(C)(C)c1nc(C23CCC(CN(C(=O)C45CC(F)(C4)C5)c4cccc(Nc5ccc(C(F)(F)F)cc5)c4)(CC2)CC3)no1` [Example 87, N-((4-(5-(tert-butyl)-1,2,4-oxadiazol-3-yl)bicyclo[2.2.2]octan-1-yl)methyl)-3-fluoro-N-(3-((4-(trifluoromethyl)phenyl)amino)phenyl)bicyclo[1.1.1]pentane-1-carboxamide], the EC50 turned out to be 2000 nM.

In the case of `CC(C)(C)c1nc(C23CCC(CN(C(=O)C45CC(F)(C4)C5)c4cccc(Nc5ccc(F)cc5)c4)(CC2)CC3)no1` [Example 88, N-((4-(5-(tert-butyl)-1,2,4-oxadiazol-3-yl)bicyclo[2.2.2]octan-1-yi)methyl)-3-fluoro-N-(3-((4-fluorophenyl)amino)phenyl)bicyclo[1.1.1]pentane-1-carboxamide], the EC50 amounted to 179 nM.

For `COC(=O)CCc1cccc(N(CC23CCC(c4ccc(N(C)C)cc4)(CC2)CC3)C(=O)C2CCCCC2)c1` [Example 89, Methyl 3-(3-(N-((4-(4-(dimethylamino)phenyl)bicyclo[2.2.2]octan-1-yl)methyl)cyclohexanecarboxamido)phenyl)propanoate], the EC50 stood at 1120 nM.

`CS(=O)(=O)c1cccc(N(CC23CCC(c4nc(C5CC5)no4)(CC2)CC3)C(=O)[C@H]2C[C@](O)(C(F)(F)F)C2)c1` [Example 90, (1S,3S)—N-((4-(3-cyclopropyl-1,2,4-oxadiazol-5-yl)bicyclo[2.2.2]octan-1-yl)methyl)-3-hydroxy-N-(3-(methylsulfonyl)phenyl)-3-(trifluoromethyl)cyclobutane-1-carboxamide] showed an EC50 of 4000 nM.

For the molecule `N#CC1(c2ccc(Nc3cccc(N(CC45CCC(c6noc(C7(F)CC7)n6)(CC4)CC5)C(=O)[C@H]4C[C@](O)(C(F)(F)F)C4)c3)cc2)CC1` [Example 91, (1S,3S)—N-(3-((4-(1-cyanocyclopropyl)phenyl)amino)phenyl)-N-((4-(5-(1-fluorocyclopropyl)-1,2,4-oxadiazol-3-yl)bicyclo[2.2.2]octan-1-yl)methyl)-3-hydroxy-3-(trifluoromethyl)cyclobutane-1-carboxamide], the EC50 is 2190 nM.

Molecule `CC(C)(C#N)Oc1ccc(Nc2cccc(N(CC34CCC(c5ccc(C(C)(F)F)cn5)(CC3)CC4)C(=O)[C@H]3C[C@](O)(C(F)(F)F)C3)c2)cc1` [Example 92, (1S,3S)—N-(3-((4-((2-cyanopropan-2-yl)oxy)phenyl)amino)phenyl)-N-((4-(5-(1,1-difluoroethyl)pyridin-2-yl)bicyclo[2.2.2]octan-1-yl)methyl)-3-hydroxy-3-(trifluoromethyl)cyclobutane-1-carboxamide] gave an EC50 of 2030 nM.

Consider `CC(F)(F)c1ccc(C23CCC(CN(c4cccc(Nc5ccc(C6(C#N)CC6)cc5)c4)C(=O)[C@H]4C[C@](O)(C(F)(F)F)C4)(CC2)CC3)nc1` [Example 93, (1S,3S)—N-(3-((4-(1-cyanocyclopropyl)phenyl)amino)phenyl)-N-((4-(5-(1,1-difluoroethyl)pyridin-2-yl)bicyclo[2.2.2]octan-1-yl)methyl)-3-hydroxy-3-(trifluoromethyl)cyclobutane-1-carboxamide], for which the response was half-maximal at 1420 nM (EC50).

Consider `CC(C)(C)c1noc(C23CCC(CN(C(=O)C45CC(F)(C4)C5)c4cncc(C#N)c4)(CC2)CC3)n1` [Example 94, N-((4-(3-(tert-butyl)-1,2,4-oxadiazol-5-yl)bicyclo[2.2.2]octan-1-yl)methyl)-N-(5-cyanopyridin-3-yl)-3-fluorobicyclo[1.1.1]pentane-1-carboxamide], for which the EC50 was determined as 1320 nM.

On to `CC(C)(F)c1nc(C23CCC(CN(C(=O)N[C@H]4CC[C@](C)(O)CC4)c4cccc(C#N)c4)(CC2)CC3)no1` [Example 95, 1-(3-cyanophenyl)-1-((4-(5-(2-fluoropropan-2-yl)-1,2,4-oxadiazol-3-yl)bicyclo[2.2.2]octan-1-yl)methyl)-3-((1R,4R)-4-hydroxy-4-methylcyclohexyl)urea], for which the concentration for a half-maximal effect (EC50) came to 181 nM.

In turn, `CC(C)(CO)CNC(=O)N(CC12CCC(c3noc(C(C)(C)F)n3)(CC1)CC2)c1cccc(C#N)c1` [Example 97, 1-(3-cyanophenyl)-1-((4-(5-(2-fluoropropan-2-yl)-1,2,4-oxadiazol-3-yl)bicyclo[2.2.2]octan-1-yl)methyl)-3-(3-hydroxy-2,2-dimethylpropyl)urea] registered an EC50 of 1000 nM.

Consider `CC(F)(F)c1nc(C23CCC(CN(C(=O)N[C@H]4CC[C@H](O)CC4)c4cccc(C#N)c4)(CC2)CC3)no1` [Example 98, 1-(3-cyanophenyl)-1-((4-(5-(1,1-difluoroethyl)-1,2,4-oxadiazol-3-yl)bicyclo[2.2.2]octan-1-yl)methyl)-3-((1R,4R)-4-hydroxycyclohexyl)urea], for which a half-maximal response (EC50) required 230 nM.

Molecule `CC(F)(F)c1nc(C23CCC(CN(C(=O)N[C@H]4CC[C@](C)(O)CC4)c4cccc(C#N)c4)(CC2)CC3)no1` [Example 99, 1-(3-cyanophenyl)-1-((4-(5-(1,1-difluoroethyl)-1,2,4-oxadiazol-3-yl)bicyclo[2.2.2]octan-1-yl)methyl)-3-((1R,4R)-4-hydroxy-4-methylcyclohexyl)urea] returned an EC50 of 391 nM.

For `CC(C)(CO)CNC(=O)N(CC12CCC(c3noc(C(C)(F)F)n3)(CC1)CC2)c1cccc(C#N)c1` [Example 100, 1-(3-cyanophenyl)-1-((4-(5-(1,1-difluoroethyl)-1,2,4-oxadiazol-3-yl)bicyclo[2.2.2]octan-1-yl)methyl)-3-(3-hydroxy-2,2-dimethylpropyl)urea], the response was half-maximal at 1480 nM (EC50).

In turn, `CC(C)(F)c1nc(C23CCC(CN(C(=O)N[C@H]4CC[C@H](O)CC4)c4ccc(F)c(Br)c4)(CC2)CC3)no1` [Example 101, 1-(3-bromo-4-fluorophenyl)-1-((4-(5-(2-fluoropropan-2-yl)-1,2,4-oxadiazol-3-yl)bicyclo[2.2.2]octan-1-yl)methyl)-3-((1R,4R)-4-hydroxycyclohexyl)urea] yielded an EC50 of 1520 nM.

In turn, `CC(C)(C)c1nc(C23CCC(CN(C(=O)C45CC(F)(C4)C5)c4cccc(Nc5ncc(OC(F)F)cn5)c4)(CC2)CC3)no1` [Example 102, N-((4-(5-(tert-butyl)-1,2,4-oxadiazol-3-yl)bicyclo[2.2.2]octan-1-yl)methyl)-N-(3-((5-(difluoromethoxy)pyrimidin-2-yl)amino)phenyl)-3-fluorobicyclo[1.1.1]pentane-1-carboxamide] yielded an EC50 of 183 nM.

In turn, `CC(C)(C)c1nc(C23CCC(CN(C(=O)C45CC(F)(C4)C5)c4cccc(Nc5cnc(C6CC6)nc5)c4)(CC2)CC3)no1` [Example 103, N-((4-(5-(tert-butyl)-1,2,4-oxadiazol-3-yl)bicyclo[2.2.2]octan-1-yl)methyl)-N-(3-((2-cyclopropylpyrimidin-5-yl)amino)phenyl)-3-fluorobicyclo[1.1.1]pentane-1-carboxamide] gave an EC50 of 187 nM.

Consider `CC(C)(C)c1nc(C23CCC(CN(C(=O)C45CC(F)(C4)C5)c4cccc(Nc5ccc(OC(F)F)cn5)c4)(CC2)CC3)no1` [Example 104, N-((4-(5-(tert-butyl)-1,2,4-oxadiazol-3-yl)bicyclo[2.2.2]octan-1-yl)methyl)-N-(3-((5-(difluoromethoxy)pyridin-2-yl)amino)phenyl)-3-fluorobicyclo[1.1.1]pentane-1-carboxamide], for which the EC50 worked out at 221 nM.

Turning to `O=C(N(CC12CCC(c3ccc(C(F)(F)F)cn3)(CC1)CC2)c1cccc(Nc2ncc(C3CC3)cn2)c1)C12CC(F)(C1)C2` [Example 105, N-(3-((5-cyclopropylpyrimidin-2-yl)amino)phenyl)-3-fluoro-N-((4-(5-(trifluoromethyl)pyridin-2-yl)bicyclo[2.2.2]octan-1-yl)methyl)bicyclo[1.1.1]pentane-1-carboxamide], the EC50 was 292 nM.

`O=C(N(CC12CCC(c3ccc(C(F)(F)F)cn3)(CC1)CC2)c1cccc(Nc2ncc(OC(F)F)cn2)c1)C12CC(F)(C1)C2` [Example 106, N-(3-((5-(difluoromethoxy)pyrimidin-2-yl)amino)phenyl)-3-fluoro-N-((4-(5-(trifluoromethyl)pyridin-2-yl)bicyclo[.2.2.2]octan-1-yl)methyl)bicyclo[1.1.1]pentane-1-carboxamide] registered an EC50 of 132 nM.
